Laboratory results: patent US20240285630A1, “Methods and compositions for improving exercise performance” (MEZZION PHARMA CO., LTD., priority 2021, published 2024)
Values joined by “and” are separate entries in the source; they are usually repeats but may differ in a detail not shown here. Equal entries are not always repeated.

Columns and labels:
[1] = system: adolescents with Fontan physiology; assay: FUEL Trial serum brain-type natriuretic peptide (BNP) level; type: in vivo, human; settings: ANCOVA; listed as udenafil
[2] = system: adolescents with Fontan physiology; assay: FUEL Trial cardiopulmonary exercise test (CPET), cycle ergometer ramp protocol; type: in vivo, human; settings: for Change in VE/VCO2 at VAT: 26 week - baseline; for Peak VO2 (% change), difference in change (treatment - placebo): natural log transformed data
Excerpt: The primary outcome was the change in oxygen consumption at peak exercise (max or peak VO2) from baseline to the 26-week visit. Secondary exercise outcomes included change in additional measures at maximal exertion, as well as change in measures of submaximal exercise at the ventilatory anaerobic threshold (VAT). The primary outcome for clinical secondary aims included change in myocardial performance index (MPI), an echocardiographically-derived measure of systolic and diastolic ventricular function, change in log-transformed reactive hyperemia index (InRHI), a PAT-derived measure of peripheral vascular function, and change in log-transformed serum BNP level. Safety was monitored through adverse event reports, which were collected according to a pre-specified protocol of study coordinator outreach, and through ad hoc patient and family communication with members of the study team at each site.
Baseline clinical testing completed before drug initiation included a blood draw to measure brain-type natriuretic peptide (BNP) level, a cardiopulmonary exercise test (CPET) using a standardized cycle ergometer ramp protocol, a standardized echocardiogram, and an assessment of peripheral vascular function using peripheral arterial tonometry (PAT) measured by finger cuff (EndoPAT; Itamar Medical, Israel). Participants who achieved maximal effort, defined as respiratory exchange ratio (RER)≥1.10 at peak exercise during CPET, were eligible for randomization and study drug initiation. […] End-of-study clinical testing included repeat measurement of serum BNP, CPET, echocardiogram, and PAT.
The primary analysis used the intention-to-treat population to evaluate the difference in the change in the primary outcome between treatment arms. This difference was assessed with an analysis of covariance (ANCOVA) with fixed factors for ventricular morphology (single left versus single right or mixed) and treatment group, with a continuous covariate of baseline max VO2. […] Secondary analyses included participants who successfully completed the protocol with measurable values at each of the secondary endpoints. Secondary outcomes of continuous data points were analyzed in the manner described for the primary outcome. In order to assess the generalizability of findings at the ventilatory anaerobic threshold, demographic and clinical characteristics were compared between participants without paired VO2 at VAT data and those comprising the remainder of the cohort.
The FUEL Trial was a Phase III clinical trial conducted at 30 centers. […] The primary outcome was the between group difference in change in oxygen consumption at peak exercise. Secondary outcomes included between group differences in changes in sub-maximal exercise at the ventilatory anaerobic threshold (VAT), the myocardial performance index (MPI), the natural log of the reactive hyperemia index (InRHI), and serum brain-type natriuretic peptide (BNP).
Baseline clinical testing completed before drug initiation included a blood draw to measure brain-type natriuretic peptide (BNP) level, a cardiopulmonary exercise test (CPET) using a standardized cycle ergometer ramp protocol (previously described in children and adolescents with Fontan physiology, Sleeper L A, Anderson P, Hsu D T, Mahony L, McCrindle B W, Roth S J, Saul J P, Williams R V, Geva T, Colan S D, Clark B J and Pediatric Heart Network I. Design of a large cross-sectional study to facilitate future clinical trials in children with the Fontan palliation. Am Heart J. 152(3):427-433 (September 2006), a standardized echocardiogram, and an assessment of peripheral vascular function using peripheral arterial tonometry (PAT) measured by finger cuff (EndoPAT; Itamar Medical, Israel). Participants who achieved maximal effort, defined as respiratory exchange ratio (RER)>1.10 at peak exercise during CPET, were eligible for randomization and study drug initiation. […]

[3] = baseline peak VO2 <80% predicted, N=251
[4] = baseline peak VO2 <80% predicted, N=301
[5] = baseline peak VO2 ≥80% predicted, N=66
[6] = excluding those with baseline peak VO2 ≥80% predicted, n=122
[7] = excluding those with baseline peak VO2 ≥80% predicted, n=150
[8] = post-hoc subgroup excluding baseline peak VO2 ≥80% of predicted
[9] = subgroup with baseline peak VO2 ≥80% of predicted, each treatment group

CCCOc1ccc(S(=O)(=O)NCCC2CCCN2C)cc1-c1nc2c(CCC)nn(C)c2c(=O)[nH]1 (stereo not drawn) [Udenafil, udenafil]
Log brain natriuretic peptide, difference LS Mean (SE), udenafil vs placebo [1]: not different between groups
Increase in peak VO2 (VO2 max), percent ([2]; 87.5 mg twice daily, baseline to 26-week, ITT): 2.8%
Increase in peak VO2 (VO2 max), unindexed ([2]; 87.5 mg twice daily, baseline to 26-week, ITT n=200, p=0.071 vs placebo): 44 mL/min and 44 ± 245 mL/min
Anaerobic threshold oxygen consumption indexed to weight, 26-week ([2]; 26-week value, mean ± SD, n=185): 18.20 ± 4.51 (185) mL/kg/min
Peak exercise oxygen consumption indexed to weight, 26-week ([2]; 26-week value, mean ± SD, n=200): 27.61 ± 6.87 (200) mL/kg/min
Number needed to treat (NNT) for an increase in peak VO2 ([2]; ITT analysis): 10
Patients with an increase in peak VO2, number ([2]; ITT analysis without imputation of missing data): 86
Patients with an increase in peak VO2, percent ([2]; ITT analysis without imputation of missing data, p=0.075 vs placebo): 46%
Peak VO2 indexed to weight, change 26 week - baseline ([2]; all participants (ITT) n=200, p=0.092 vs placebo): −0.23 ± 4.06 (200) mL/kg/min and −0.23 mL/kg/min
VO2 at VAT indexed to weight, change 26 week - baseline ([2]; all participants n=170, p=0.012 vs placebo): −0.07 ± 3.0 (170) mL/kg/min and −0.07 mL/kg/min
% Predicted Peak VO2, 26 week - baseline ([2]; all participants n=189): −0.90
Peak VO2 (% change, ml/kg/min), 26 week - baseline ([2]; all participants n=200): −1.0%
Change in VE/VCO2 at VAT ([2]; all participants): −0.76
Change in VE/VCO2 at VAT ([2]; all participants, listed as udenafil): −0.8
Change in work rate at VAT ([2]; all participants, baseline to 26-week): 3.46 Watts
Work at VAT, difference in change (treatment - placebo) ([2]; baseline peak VO2 <80% predicted, N=243): 3.54 watts
VE/VCO2 at VAT, difference in change (treatment - placebo) [2, 3]: −0.66
VO2 at VAT, difference in change (treatment - placebo) [2, 3]: 0.77 mL/min/kg
Peak VO2, difference in change (treatment group - placebo group) [2, 4]: 1.12 mL/min/kg
Peak VO2 (% change), difference in change (treatment - placebo) [2, 4]: 5.0%
Peak VO2, difference in change (treatment group - placebo group) ([2]; baseline peak VO2 ≥80% predicted (Super Fontan), N=77): -0.89 mL/min/kg
Peak VO2, difference in change (treatment group - placebo group) ([2]; baseline peak VO2 ≥80% predicted (Super Fontan), N=77, listed as udenafil): no significant udenafil treatment effect
VE/VCO2 at VAT, difference in change (treatment - placebo) [2, 5]: −1.18
VO2 at VAT, difference in change (treatment - placebo) [2, 5]: 0.38 mL/min/kg
Work at VAT, difference in change (treatment - placebo) [2, 5]: 3.15 watts
Peak VO2 (% change), difference in change (treatment - placebo) ([2]; baseline peak VO2 ≥80% predicted, N=77): −2.39%
Decrease in VE/VCO2 at VAT, percent ([2]; baseline to 26-week): 2.1%
Improvement in work rate at VAT, percent ([2]; baseline to 26-week): 5.5% and 5.2%
Decrease in VE/VCO2 at VAT (improved ventilatory efficiency) ([2]; baseline to 26-week, given as size of decrease): 0.8
Peak exercise heart rate, change ([2]; baseline to 26-week, mean ± SD): −1.4 ± 11 bpm
Peak exercise minute ventilation, change ([2]; baseline to 26-week, mean ± SD): 1.2 ± 14 L/min
Peak exercise oxygen saturation, change ([2]; baseline to 26-week, mean ± SD): 0.4 ± 3.4%
Peak exercise respiratory rate, change ([2]; baseline to 26-week, mean ± SD): −1.1 ± 10 breaths/min
Peak exercise minute ventilation, change ([2]; baseline to 26-week, mean ± SD, listed as udenafil): no difference in the change in minute ventilation between groups
Work at VAT, 26 week - baseline ([2]; excluding those with baseline peak VO2 ≥80% predicted, n=119): 3.80 watts
VE/VCO2 at VAT, 26 week - baseline [2, 6]: −0.61
VO2 at VAT, 26 week - baseline [2, 6]: 0.11 mL/min/kg
% Predicted Peak VO2, 26 week - baseline [2, 7]: 0.43
Peak VO2 (% change, ml/kg/min), 26 week - baseline [2, 7]: 0.4%
Peak VO2, 26 week - baseline [2, 7]: 0.23 mL/min/kg
Number needed to treat (NNT) for an increase in peak VO2 [2, 8]: 8.2
Patients with an increase in peak VO2, number [2, 8]: 75
Patients with an increase in peak VO2, percent ([2]; post-hoc subgroup excluding baseline peak VO2 ≥80% of predicted, p=0.037 vs placebo): 50%
Patients with negative change in peak VO2, percent [2, 9]: 71 to 72%
Patients with positive change in peak VO2, percent [2, 9]: 28 to 29%
